Assay results from ChEMBL document CHEMBL4422618, “Translational impact of novel widely pharmacological characterized mofezolac-derived COX-1 inhibitors combined with bortezomib on human multiple myeloma cell lines viability” (Eur J Med Chem, 2019).
Active and inactive are the calls of the source. The rule behind the calls is not given here.

Columns and labels:
[1] = biological target: T1, Prostaglandin G/H synthase 1 (Ovis aries, UniProt P05979); assay: Inhibition of ovine COX1 using arachidonic acid as substrate by colorimetric assay
T1 sequence (P05979 whole entry): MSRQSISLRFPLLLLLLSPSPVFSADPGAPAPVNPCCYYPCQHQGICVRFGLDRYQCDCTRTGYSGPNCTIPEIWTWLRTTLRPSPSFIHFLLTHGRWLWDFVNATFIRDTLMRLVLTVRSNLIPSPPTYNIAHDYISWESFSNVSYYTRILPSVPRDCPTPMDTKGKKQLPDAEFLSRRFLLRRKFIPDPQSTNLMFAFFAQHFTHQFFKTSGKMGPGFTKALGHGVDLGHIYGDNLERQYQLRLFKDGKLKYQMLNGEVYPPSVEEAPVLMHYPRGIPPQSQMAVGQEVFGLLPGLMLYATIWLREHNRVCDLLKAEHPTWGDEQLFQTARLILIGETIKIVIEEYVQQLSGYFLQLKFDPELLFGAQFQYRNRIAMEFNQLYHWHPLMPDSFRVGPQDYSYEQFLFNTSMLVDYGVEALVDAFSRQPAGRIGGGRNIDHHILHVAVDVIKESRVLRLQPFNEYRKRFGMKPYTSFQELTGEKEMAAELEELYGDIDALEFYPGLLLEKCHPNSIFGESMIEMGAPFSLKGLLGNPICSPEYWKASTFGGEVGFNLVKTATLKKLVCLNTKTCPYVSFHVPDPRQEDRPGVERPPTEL

[2] = biological target: T2, Prostaglandin G/H synthase 2 (Homo sapiens, UniProt P35354); assay: Inhibition of human COX2 using arachidonic acid as substrate by colorimetric assay
T2 sequence (P35354 whole entry): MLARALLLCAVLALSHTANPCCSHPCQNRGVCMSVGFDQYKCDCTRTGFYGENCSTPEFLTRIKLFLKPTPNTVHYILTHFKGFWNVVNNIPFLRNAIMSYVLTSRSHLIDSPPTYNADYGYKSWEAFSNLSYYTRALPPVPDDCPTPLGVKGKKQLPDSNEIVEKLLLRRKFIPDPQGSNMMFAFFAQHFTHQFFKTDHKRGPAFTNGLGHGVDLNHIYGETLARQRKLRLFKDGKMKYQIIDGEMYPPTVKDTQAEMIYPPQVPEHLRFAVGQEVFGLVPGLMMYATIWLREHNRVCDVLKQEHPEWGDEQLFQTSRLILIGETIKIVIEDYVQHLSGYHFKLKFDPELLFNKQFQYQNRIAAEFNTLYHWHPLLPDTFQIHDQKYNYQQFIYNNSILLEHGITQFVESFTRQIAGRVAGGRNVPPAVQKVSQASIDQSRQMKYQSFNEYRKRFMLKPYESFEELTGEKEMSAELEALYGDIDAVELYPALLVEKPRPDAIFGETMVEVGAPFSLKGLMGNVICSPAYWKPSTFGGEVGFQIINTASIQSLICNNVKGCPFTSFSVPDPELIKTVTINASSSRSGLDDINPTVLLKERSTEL

[3] = biological target: T3, Prostaglandin G/H synthase 1 (Ovis aries) (UniProt P05979); assay: Inhibition of ovine COX1 at 50 uM using arachidonic acid as substrate by colorimetric assay relative to control
T3 sequence (whole entry): T1 sequence (P05979 whole entry)

[4] = biological target: T4, Prostaglandin G/H synthase 2 (Homo sapiens) (UniProt P35354); assay: Inhibition of human COX2 at 50 uM using arachidonic acid as substrate by colorimetric assay relative to control
T4 sequence (whole entry): T2 sequence (P35354 whole entry)

[5] = Selectivity index, ratio of IC50 for human COX2 to IC50 for ovine COX1
[6] = biological target: T3, Prostaglandin G/H synthase 1 (Ovis aries); assay: Inhibition of ovine COX1 at 10 uM using arachidonic acid as substrate by colorimetric assay relative to control
[7] = Genotoxicity in Escherichia coli PQ35 at 500 uM after overnight incubation by SOS chromotest; type: toxicity
[8] = Genotoxicity in Escherichia coli PQ37 at 500 uM after overnight incubation by SOS chromotest; type: toxicity
RPMI-8226 [9] = assay: Cytotoxicity against human RPMI8226 cells assessed as reduction in cell viability at 3 nM after 48 hrs by CCK8 assay relative to control; type: functional
RPMI-8226 [10] = assay: Cytotoxicity against human RPMI8226 cells assessed as reduction in cell viability at 2 nM after 48 hrs by CCK8 assay; type: functional, cell-based
NCI-H929 [11] = assay: Cell cycle arrest in human NCI-H929 cells assessed as accumulation at S phase at 2 nM after 48 hrs by propidium iodide/RNase staining based flow cytometric method relative to control; type: functional
NCI-H929 [12] = assay: Cell cycle arrest in human NCI-H929 cells assessed as accumulation at G0/G1 phase at 2 nM after 48 hrs by propidium iodide/RNase staining based flow cytometric method relative to control; type: functional
RPMI-8226 [13] = assay: Cell cycle arrest in human RPMI8226 cells assessed as accumulation at G0/G1 phase at 3 nM after 48 hrs by propidium iodide/RNase staining based flow cytometric method; type: functional
RPMI-8226 [14] = assay: Cell cycle arrest in human RPMI8226 cells assessed as accumulation at S phase at 3 nM after 48 hrs by propidium iodide/RNase staining based flow cytometric method; type: functional
NCI-H929 [15] = assay: Induction of apoptosis in human NCI-H929 cells assessed as early apoptotic cells at 2 nM after 48 hrs by Annexin-V/propidium iodide staining based flow cytometric method (reference value: 17.1%); type: functional
NCI-H929 [16] = assay: Induction of apoptosis in human NCI-H929 cells assessed as late apoptotic cells at 2 nM after 48 hrs by Annexin-V/propidium iodide staining based flow cytometric method (reference value: 0.23%); type: functional
NCI-H929 [17] = assay: Induction of apoptosis in human NCI-H929 cells assessed as necrotic cells at 2 nM after 48 hrs by Annexin-V/propidium iodide staining based flow cytometric method (reference value: 0.0034%); type: functional
NCI-H929 [18] = assay: Induction of apoptosis in human NCI-H929 cells assessed as viable cells at 2 nM after 48 hrs by Annexin-V/propidium iodide staining based flow cytometric method (reference value: 82.6%); type: functional; conditions: NCI-H929, 48 h, read-out: Activity
RPMI-8226 [19] = assay: Induction of apoptosis in human RPMI8226 cells assessed as early apoptotic cells at 3 nM after 48 hrs by Annexin-V/propidium iodide staining based flow cytometric method (reference value: 1.05%); type: functional
RPMI-8226 [20] = assay: Induction of apoptosis in human RPMI8226 cells assessed as late apoptotic cells at 3 nM after 48 hrs by Annexin-V/propidium iodide staining based flow cytometric method (reference value: 0.21%); type: functional
RPMI-8226 [21] = assay: Induction of apoptosis in human RPMI8226 cells assessed as necrotic cells at 3 nM after 48 hrs by Annexin-V/propidium iodide staining based flow cytometric method (reference value: 0.090%); type: functional
RPMI-8226 [22] = assay: Induction of apoptosis in human RPMI8226 cells assessed as viable cells at 3 nM after 48 hrs by Annexin-V/propidium iodide staining based flow cytometric method (reference value: 98.7%); type: functional; conditions: RPMI-8226, 48 h, read-out: Activity
RPMI-8226 [23] = assay: Cytotoxicity against human RPMI8226 cells assessed as reduction in cell viability at 2 nM after 48 hrs by CCK8 assay relative to control; type: functional, cell-based
Plasma [24] = assay: Anticoagulant activity in human platelet poor plasma assessed as activated partial thromboplastin time at 100 uM incubated for 15 mins at room temperature and subsequent incubation for 2 mins at 37 degreeC followed by cephalin addition and measured after 2 mins for every secs in presence of CaCl2; type: functional
Plasma [25] = assay: Anticoagulant activity in human platelet poor plasma assessed as prothrombin time at 100 uM incubated for 15 mins at room temperature and subsequent incubation for 2 mins at 37 degreeC followed by PBS addition and measured after 3 mins for every secs in presence of calcium thromboplastin; type: functional

SMILES	IC50 [1]	IC50 [2]	inhibition [3]	other results
COc1ccc(-c2noc(N)c2-c2ccc(OC)cc2)cc1	8.3 µM	> 50 µM	89%	–
COc1ccc(-c2noc(CF)c2-c2ccc(OC)cc2)cc1	0.35 µM	0.3 µM	100%	inhibition [4]: 85%
COc1ccc(-c2c(-c3ccc(F)cc3)noc2N)cc1	13 µM	> 50 µM	83%	–
Nc1onc(-c2ccc([N+](=O)[O-])cc2)c1-c1ccc(F)cc1	12 µM	> 50 µM	71%	–
COc1ccc(-c2noc(C)c2-c2ccc(OC)cc2)cc1	–	0.35 µM	–	Ratio IC50 [5]: 4.6
COc1ccc(-c2c(-c3ccc(N)cc3)noc2CC(=O)O)cc1	> 50 µM	> 50 µM	33%	inhibition [4]: 42%
CS(=O)(=O)c1ccc(-c2noc(N)c2-c2ccc(F)cc2)cc1	> 50 µM	> 50 µM	–	–
COc1ccc(-c2c(-c3ccc(F)cc3)noc2C)cc1	3 µM	> 50 µM	94%	–
COc1ccc(-c2noc(CBr)c2-c2ccc(OC)cc2)cc1	0.1 µM	0.18 µM	93%	inhibition [4]: 63%
Cc1onc(-c2ccc([N+](=O)[O-])cc2)c1-c1ccc(F)cc1	> 50 µM	> 50 µM	–	–
Cc1onc(-c2ccc(S(C)(=O)=O)cc2)c1-c1ccc(F)cc1	> 50 µM	0.07 µM	24%	inhibition [4]: 52%
COc1ccc(-c2c(-c3ccc(N)cc3)noc2C)cc1	23 µM	> 50 µM	53%	–
COc1ccc(-c2c(-c3ccc([N+](=O)[O-])cc3)noc2C)cc1	–	> 50 µM	–	inhibition [6]: 36%
COc1ccc(-c2c(-c3ccc(NC(C)=O)cc3)noc2CC(=O)O)cc1	12 µM	> 50 µM	79%	–
COc1ccc(-c2c(-c3ccc(F)cc3)noc2CC(=O)O)cc1	7.5 µM	> 50 µM	92%	–
COc1ccc(-c2noc(CCO)c2-c2ccc(OC)cc2)cc1	0.12 µM	0.19 µM	100%	Ratio IC50 [5]: 1.6; inhibition [4]: 82%
O=[N+]([O-])c1cc[n+]([O-])c2ccccc12 [4-NITROQUINOLINE-1-OXIDE]	–	–	–	Activity [7]: Toxic; Activity [8]: Toxic
CC(C)C[C@H](NC(=O)[C@H](Cc1ccccc1)NC(=O)c1cnccn1)B(O)O [BORTEZOMIB]	–	–	–	Activity (RPMI-8226 [9]): 53%; Activity (RPMI-8226 [10]): Active; Activity (NCI-H929 [11]): 10%; Activity (NCI-H929 [12]): 10%; Activity (RPMI-8226 [13]): inactive; Activity (RPMI-8226 [14]): inactive; Activity (NCI-H929 [15]): 48.7%; Activity (NCI-H929 [16]): 0.14%; Activity (NCI-H929 [17]): 0.033%; viability at 0.002 µM (NCI-H929 [18]): 51.1%; Activity (RPMI-8226 [19]): 8.81%; Activity (RPMI-8226 [20]): 0.11%; Activity (RPMI-8226 [21]): 0.0918%; viability at 0.003 µM (RPMI-8226 [22]): 91.1%; Activity (RPMI-8226 [23]): Active
O=C(NC[C@H]1CN(c2ccc(N3CCOCC3=O)cc2)C(=O)O1)c1ccc(Cl)s1 [RIVAROXABAN]	–	–	–	APTT (Plasma [24]): 300 s; PT (Plasma [25]): 300 s
